Measured values as given in patent US6582662B1, “Devices and methods for the performance of miniaturized homogeneous assays” (Tecan Trading AG, priority 1999, dated 2003).

Target: alkaline phosphatase
Test: Enzyme inhibition assay on microfluidic disc (alkaline phosphatase / PNPP, reflectance at 430 nm)
Assay type: biochemical
Conditions: end-point measurement 2 minutes after fluid pumped into detection chambers; dose-response fitted to Langmuir isotherm; substrate PNPP 0.5 mM; alkaline phosphatase 1 mg/mL; 0.1M glycine, 0.5 mM MgCl2; read-out: inhibition constant
Protocol: The platform shown in FIGS. 1 through 6 was used to perform 96 simultaneous enzyme inhibition assays as model homogeneous assays. In an enzyme inhibition assay, the effect of a compound present in a first fluid (“A”) upon the capacity of an enzyme present in a second fluid (fluid “B”) to catalyze a reaction, typically of a substrate in a third fluid (“C”) is determined. The reaction was chosen to give a change in a readily-measured parameter of the fluid, such as its optical density, or to produce a fluorescent moiety. When no inhibitor was present in fluid A, mixing solution A with enzyme solution B had no effect: enzyme activity detected in this assay was the maximum detected and provided the largest change in the measured parameter. However, if an inhibitor was present in fluid A, mixing fluid A with fluid B resulted, after a sufficient time in a chemical reaction or other change induced by the inhibitor in most or all of the enzyme molecules, rendering them incapable of catalyzing the desired reaction. If this solution was mixed with the substrate solution, little or no change in the measured parameter was seen.
The system chosen to model homogeneous assays consisted of theophylline as inhibitor, alkaline phosphatase as the enzyme, and p-nitrophenol phosphate (PNPP) as the substrate. […]

Compound Cn1c(=O)c2[nH]cnc2n(C)c1=O [theophylline] has a Ki of 9.7 ± 0.9 mM.
